These results are taken from BindingDB's records for doi:10.1016/S0960-894X(01)80987-2 (1993).

In general, IC50 refers to the point on the concentration scale where inhibition reaches its midpoint. Read a low IC50 as higher potency.

This assay in a line: In vitro test for inhibition of [125I]CCK binding to Cholecystokinin type B receptor from guinea pig cortical membranes was determined.
On to `Cc1cccc(NC(=O)NC2N=C(C3CCC3)c3ccccc3N(C)C2=O)c1` (stereo not drawn) [1-(5-Cyclobutyl-1-methyl-2-oxo-2,3-dihydro-1H-benzo[e][1,4]diazepin-3-yl)-3-m-tolyl-urea], for which the IC50 was found to be 30 nM.

Compound `Cc1cccc(NC(=O)NC2N=C(C3CCCC3)c3ccccc3N(C)C2=O)c1` (stereo not drawn) [1-(5-Cyclopentyl-1-methyl-2-oxo-2,3-dihydro-1H-benzo[e][1,4]diazepin-3-yl)-3-m-tolyl-urea] registered an IC50 of 16 nM.

Consider `Cc1cccc(NC(=O)N[C@H]2N=C(C3CCCCC3)c3ccccc3N(C)C2=O)c1` [1-((S)-5-Cyclohexyl-1-methyl-2-oxo-2,3-dihydro-1H-benzo[e][1,4]diazepin-3-yl)-3-m-tolyl-urea], for which the IC50 was determined as 169 nM.
